This note sets out measurements from patent US20260297080A1, “BICYCLIC COMPOUNDS AS CDK INHIBITORS” (BeOne Medicines I GmbH, priority 2022, published 2026).

For experiment [1], the target named is CDK2/Cyclin E1 (Homo sapiens, UniProt P24941). Put plainly: CDK2/Cyclin E1 Biochemical Assay (TR-FRET), 0.060 mM ATP. The conditions noted are these: 0.15 μM Rb (Ser780)-biotin substrate, pH7.0, 60 min preincubation, 120 min reaction, room temperature. The method, boiled down: (§1)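 Percent inhibition was derived from the 665 nm/620 nm TR-FRET ratio after a 120-minute room-temperature reaction on 0.15 μM Rb (Ser780)-biotin, preceded by 60-minute enzyme–compound preincubation. IC50 came from four-parameter logistic fitting.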
On the technique in general: TR-FRET usually uses a lanthanide donor and a delayed reading to cut background.

Experiment [2] concerns the target CDK1/Cyclin B1 (Homo sapiens, UniProt P06493). Put plainly: CDK1/Cyclin B1 Biochemical Assay (TR-FRET), 0.015 mM ATP. The note with it: 0.15 μM Rb (Ser780)-biotin substrate, pH7.0, 60 min preincubation, 120 min reaction, room temperature. In short, it runs like this: as §1

Chain of CDK1/Cyclin B1 (P06493 whole entry): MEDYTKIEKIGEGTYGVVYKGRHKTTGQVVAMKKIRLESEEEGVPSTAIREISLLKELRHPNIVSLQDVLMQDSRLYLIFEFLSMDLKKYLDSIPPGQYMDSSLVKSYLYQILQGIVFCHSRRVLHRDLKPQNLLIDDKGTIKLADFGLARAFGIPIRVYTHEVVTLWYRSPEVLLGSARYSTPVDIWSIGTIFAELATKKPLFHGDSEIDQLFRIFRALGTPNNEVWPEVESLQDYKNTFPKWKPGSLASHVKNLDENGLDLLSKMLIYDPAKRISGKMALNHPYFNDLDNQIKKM
Chain of CDK1/Cyclin B1 (P14635 whole entry partner): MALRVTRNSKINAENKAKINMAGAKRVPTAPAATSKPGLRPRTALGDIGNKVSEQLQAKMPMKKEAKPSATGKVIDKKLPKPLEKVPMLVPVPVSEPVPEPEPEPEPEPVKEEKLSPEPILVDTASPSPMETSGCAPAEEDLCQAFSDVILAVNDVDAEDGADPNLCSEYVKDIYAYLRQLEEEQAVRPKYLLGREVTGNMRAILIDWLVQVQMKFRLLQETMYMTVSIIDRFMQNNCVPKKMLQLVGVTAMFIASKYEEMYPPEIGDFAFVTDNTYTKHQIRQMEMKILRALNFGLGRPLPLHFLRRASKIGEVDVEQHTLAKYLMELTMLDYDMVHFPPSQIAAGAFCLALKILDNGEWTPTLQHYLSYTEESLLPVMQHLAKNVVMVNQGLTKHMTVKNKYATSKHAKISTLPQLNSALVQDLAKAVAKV

For orientation: IC50 means the concentration at which inhibition is half-maximal. Take `CC(C)NC(=O)O[C@H]1CC[C@@H](c2cc(Nc3ccc4c(c3)C(C)S(=O)(=O)N4)n[nH]2)C1` (single isomer, unassigned) [Example 384a, cis-3-(3-((3-methyl-2,2-dioxido-1,3-dihydrobenzo[c]isothiazol-5-yl)amino)-1H-pyrazol-5-yl)cyclopentyl isopropylcarbamate]: the half-maximal inhibitory concentration (IC50) in experiment [1] amounted to 0.0008 µM; in experiment [2], 0.022 µM.
Consider `CC(C)NC(=O)O[C@H]1CC[C@@H](c2cc(Nc3ccc4c(c3)C(C)S(=O)(=O)N4)n[nH]2)C1` (single isomer, unassigned) [Example 384b, cis-3-(3-((3-methyl-2,2-dioxido-1,3-dihydrobenzo[c]isothiazol-5-yl)amino)-1H-pyrazol-5-yl)cyclopentyl isopropylcarbamate], for which the values for the IC50 in experiment [1] and in experiment [2] were 0.0039 µM and 0.191 µM, respectively.
On to `CC(C)NC(=O)O[C@H]1CC[C@@H](c2cc(Nc3ccc4c(c3)C(C)S(=O)(=O)N4)n[nH]2)C1` (single isomer, unassigned) [Example 384c, cis-3-(3-((3-methyl-2,2-dioxido-1,3-dihydrobenzo[c]isothiazol-5-yl)amino)-1H-pyrazol-5-yl)cyclopentyl isopropylcarbamate], for which the results for the IC50 in experiment [1] and in experiment [2] were 0.0012 µM and 0.014 µM, respectively.
For `CC(C)NC(=O)O[C@H]1CC[C@@H](c2cc(Nc3ccc4c(c3)C(C)S(=O)(=O)N4)n[nH]2)C1` (single isomer, unassigned) [Example 384d, cis-3-(3-((3-methyl-2,2-dioxido-1,3-dihydrobenzo[c]isothiazol-5-yl)amino)-1H-pyrazol-5-yl)cyclopentyl isopropylcarbamate], the IC50 in experiment [1] amounted to 0.0018 µM; in experiment [2] it was 0.057 µM.
On the same counts, the results for `CCCNC(=O)O[C@@H]1CC[C@H](c2cc(Nc3ccc4c(c3F)CS(=O)(=O)N4)n[nH]2)C1` (single isomer, unassigned) [Example 387a] are 0.003 µM and 0.137 µM.
In the case of `CCCNC(=O)O[C@H]1CC[C@@H](c2cc(Nc3ccc4c(c3F)CS(=O)(=O)N4)n[nH]2)C1` (single isomer, unassigned) [Example 387b], the 50% inhibitory concentration (IC50) amounted to 0.002 µM in experiment [1] and 0.037 µM in experiment [2].
Consider `CC1(NC(=O)O[C@@H]2CC[C@H](c3cc(Nc4ccc5c(c4F)CS(=O)(=O)N5)n[nH]3)C2)CC1` (single isomer, unassigned) [Example 388a], for which the results for the 50% inhibitory concentration (IC50) in experiment [1] and in experiment [2] were 0.0012 µM and 0.036 µM, respectively.
Regarding `CC1(NC(=O)O[C@H]2CC[C@@H](c3cc(Nc4ccc5c(c4F)CS(=O)(=O)N5)n[nH]3)C2)CC1` (single isomer, unassigned) [Example 388b], the IC50 in experiment [1] is 0.0013 µM; in experiment [2], 0.021 µM.
For `CC(C)(C)NC(=O)O[C@@H]1CC[C@H](c2cc(Nc3cc4c(cc3F)S(=O)(=O)NC4)n[nH]2)C1` (single isomer, unassigned) [Example 395a], the IC50 in experiment [1] came to 0.0016 µM; in experiment [2] it was 0.191 µM.
For the compound `CC(C)(C)NC(=O)O[C@H]1CC[C@@H](c2cc(Nc3cc4c(cc3F)S(=O)(=O)NC4)n[nH]2)C1` (single isomer, unassigned) [Example 395b], the IC50 amounted to 0.0013 µM in experiment [1] and 0.114 µM in experiment [2].
Consider `O=C(NC1CCC1)O[C@@H]1CC[C@H](c2cc(Nc3ccc4c(c3F)CS(=O)(=O)N4)n[nH]2)C1` (single isomer, unassigned) [Example 399a], for which the IC50 in experiment [1] worked out at 0.0062 µM; in experiment [2], 0.264 µM.
Consider `O=C(NC1CCC1)O[C@H]1CC[C@@H](c2cc(Nc3ccc4c(c3F)CS(=O)(=O)N4)n[nH]2)C1` (single isomer, unassigned) [Example 399b], for which the values for the IC50 in experiment [1] and in experiment [2] were 0.0038 µM and 0.09 µM, respectively.
As for `O=C(NC1CCCC1)O[C@@H]1CC[C@H](c2cc(Nc3ccc4c(c3F)CS(=O)(=O)N4)n[nH]2)C1` (single isomer, unassigned) [Example 400a], the results for the IC50 in experiment [1] and in experiment [2] were 0.0069 µM and 0.154 µM, respectively.
In the case of `O=C(NC1CCCC1)O[C@H]1CC[C@@H](c2cc(Nc3ccc4c(c3F)CS(=O)(=O)N4)n[nH]2)C1` (single isomer, unassigned) [Example 400b], the IC50 in experiment [1] is 0.0034 µM; in experiment [2] it was 0.064 µM.
Turning to `O=C(NCCC(F)(F)F)O[C@@H]1CC[C@H](c2cc(Nc3cc4c(cc3F)S(=O)(=O)NC4)n[nH]2)C1` (single isomer, unassigned) [Example 419a], the IC50 in experiment [1] was determined as 0.002 µM; in experiment [2] it was 0.298 µM.
As for `O=C(NCCC(F)(F)F)O[C@H]1CC[C@@H](c2cc(Nc3cc4c(cc3F)S(=O)(=O)NC4)n[nH]2)C1` (single isomer, unassigned) [Example 419b], the IC50 in experiment [1] was determined as 0.0018 µM; in experiment [2], 0.078 µM.
For the compound `CC(C)NC(=O)O[C@@H]1CC[C@H](c2cc(Nc3ccc4c(c3)NS(=O)(=O)C4)n[nH]2)C1` (stereo in doubt) [Example 303a, cis-3-(3-((2,2-dioxido-1,3-dihydrobenzo[c]isothiazol-6-yl)amino)-1H-pyrazol-5-yl)cyclopentyl isopropylcarbamate], the IC50 in experiment [1] is 0.0026 µM; in experiment [2], 0.048 µM.
For `CC(C)NC(=O)O[C@H]1CC[C@@H](c2cc(Nc3ccc4c(c3)NS(=O)(=O)C4)n[nH]2)C1` (stereo in doubt) [Example 303b, cis-3-(3-((2,2-dioxido-1,3-dihydrobenzo[c]isothiazol-6-yl)amino)-1H-pyrazol-5-yl)cyclopentyl isopropylcarbamate], the IC50 in experiment [1] turned out to be 0.002 µM; in experiment [2] it was 0.028 µM.
The like results for `CCCNC(=O)O[C@H]1C[C@@H](c2cc(Nc3cc4c(cc3F)S(=O)(=O)NC4)n[nH]2)C1` [Example 50, cis-3-(3-((6-fluoro-1,1-dioxido-2,3-dihydrobenzo[d]isothiazol-5-yl)amino)-1H-pyrazol-5-yl)cyclobutyl propylcarbamate] were, in that order, 0.0056 µM and 0.14 µM.
The like results for `CC(C)NC(=O)OC1CC(c2cc(Nc3ccc4c(c3F)CNS4(=O)=O)n[nH]2)C1` (stereo not drawn) [Example 137, 3-(3-((4-fluoro-1,1-dioxido-2,3-dihydrobenzo[d]isothiazol-5-yl)amino)-1H-pyrazol-5-yl)cyclobutyl isopropylcarbamate] were, in that order, 0.035 µM and 0.375 µM.
Turning to `CC(C)NC(=O)OC1CC(c2cc(Nc3ccc4c(c3)CNS4(=O)=O)n[nH]2)C1` (stereo not drawn) [Example 173, 3-(3-((1,1-dioxido-2,3-dihydrobenzo[d]isothiazol-5-yl)amino)-1H-pyrazol-5-yl)cyclobutyl isopropylcarbamate], the IC50 came to 0.0067 µM in experiment [1] and 0.073 µM in experiment [2].
On to `CCCNC(=O)O[C@H]1CC[C@@H](c2cc(Nc3ccc4c(c3)CS(=O)(=O)N4)n[nH]2)C1` [Example 195b], for which the IC50 in experiment [1] is 0.017 µM; in experiment [2], 0.067 µM.
With `CCCNC(=O)O[C@@H]1CC[C@H](c2cc(Nc3ccc4c(c3F)CS(=O)(=O)N4CC(F)(F)F)n[nH]2)C1` [Example 266a], the IC50 in experiment [1] was found to be 0.0033 µM; in experiment [2], 0.096 µM.
`CCCNC(=O)O[C@H]1CC[C@@H](c2cc(Nc3ccc4c(c3F)CS(=O)(=O)N4CC(F)(F)F)n[nH]2)C1` [Example 266b]: the IC50 was determined as 0.0035 µM in experiment [1] and 0.059 µM in experiment [2].
Take `CN1c2ccc(Nc3cc([C@H]4CC[C@@H](OC(=O)NC(C)(C)C)C4)[nH]n3)cc2CS1(=O)=O` [Example 391a]: the IC50 turned out to be 0.0007 µM in experiment [1] and 0.017 µM in experiment [2].
With `CN1c2ccc(Nc3cc([C@@H]4CC[C@H](OC(=O)NC(C)(C)C)C4)[nH]n3)cc2CS1(=O)=O` [Example 391b], the IC50 in experiment [1] stood at 0.0009 µM; in experiment [2], 0.0078 µM.
Consider `CC(C)NC(=O)O[C@H]1C[C@@H](c2cc(Nc3cc4c(cc3F)S(=O)(=O)NC4)n[nH]2)C1` [Example 397, (1s,3s)-3-(3-((6-fluoro-1,1-dioxido-2,3-dihydrobenzo[d]isothiazol-5-yl)amino)-1H-pyrazol-5-yl)cyclobutyl isopropylcarbamate], for which the IC50 in experiment [1] turned out to be 0.103 µM; in experiment [2], 2.02 µM.
Turning to `CC(C)(C)NC(=O)O[C@@H]1CC[C@H](c2cc(Nc3ccc4c(c3)CS(=O)(=O)N4)n[nH]2)C1` [Example 403a], the IC50 in experiment [1] is 0.001 µM; in experiment [2], 0.01 µM.
In the case of `CC(C)(C)NC(=O)O[C@H]1CC[C@@H](c2cc(Nc3ccc4c(c3)CS(=O)(=O)N4)n[nH]2)C1` [Example 403b], the concentration for half-maximal inhibition (IC50) in experiment [1] was 0.0011 µM; in experiment [2], 0.0073 µM.
With `CC(C)(C)NC(=O)O[C@@H]1CC[C@H](c2cc(Nc3cc4c(cc3F)NS(=O)(=O)C4)n[nH]2)C1` [Example 404a], the IC50 in experiment [1] turned out to be 0.018 µM; in experiment [2], 0.717 µM.
Consider `CC(C)(C)NC(=O)O[C@H]1CC[C@@H](c2cc(Nc3cc4c(cc3F)NS(=O)(=O)C4)n[nH]2)C1` [Example 404b], for which the IC50 in experiment [1] stood at 0.014 µM; in experiment [2], 0.458 µM.
For the compound `CC[C@H](C)NC(=O)O[C@H]1C[C@@H](c2cc(Nc3cc4c(cc3F)S(=O)(=O)NC4)n[nH]2)C1` [Example 410, (1s,3R)-3-(3-((6-fluoro-1,1-dioxido-2,3-dihydrobenzo[d]isothiazol-5-yl)amino)-1H-pyrazol-5-yl)cyclobutyl((S)-sec-butyl)carbamate], the figures for the 50% inhibitory concentration (IC50) in experiment [1] and in experiment [2] were 0.027 µM and 0.884 µM, respectively.
For the compound `CC1(NC(=O)O[C@H]2C[C@@H](c3cc(Nc4cc5c(cc4F)S(=O)(=O)NC5)n[nH]3)C2)CC1` [Example 411, (1s,3s)-3-(3-((6-fluoro-1,1-dioxido-2,3-dihydrobenzo[d]isothiazol-5-yl)amino)-1H-pyrazol-5-yl)cyclobutyl(1-methylcyclopropyl)carbamate], the IC50 in experiment [1] was 0.0094 µM; in experiment [2], 0.386 µM.
